The results in this text go back to patent US11603372B2, “Compounds and therapeutic uses thereof” (VioGen Biosciences, LLC, priority 2017, dated 2023).

SMILES strings stand for the structures.

Chain of PIKfyve (Q9Y2I7 whole entry): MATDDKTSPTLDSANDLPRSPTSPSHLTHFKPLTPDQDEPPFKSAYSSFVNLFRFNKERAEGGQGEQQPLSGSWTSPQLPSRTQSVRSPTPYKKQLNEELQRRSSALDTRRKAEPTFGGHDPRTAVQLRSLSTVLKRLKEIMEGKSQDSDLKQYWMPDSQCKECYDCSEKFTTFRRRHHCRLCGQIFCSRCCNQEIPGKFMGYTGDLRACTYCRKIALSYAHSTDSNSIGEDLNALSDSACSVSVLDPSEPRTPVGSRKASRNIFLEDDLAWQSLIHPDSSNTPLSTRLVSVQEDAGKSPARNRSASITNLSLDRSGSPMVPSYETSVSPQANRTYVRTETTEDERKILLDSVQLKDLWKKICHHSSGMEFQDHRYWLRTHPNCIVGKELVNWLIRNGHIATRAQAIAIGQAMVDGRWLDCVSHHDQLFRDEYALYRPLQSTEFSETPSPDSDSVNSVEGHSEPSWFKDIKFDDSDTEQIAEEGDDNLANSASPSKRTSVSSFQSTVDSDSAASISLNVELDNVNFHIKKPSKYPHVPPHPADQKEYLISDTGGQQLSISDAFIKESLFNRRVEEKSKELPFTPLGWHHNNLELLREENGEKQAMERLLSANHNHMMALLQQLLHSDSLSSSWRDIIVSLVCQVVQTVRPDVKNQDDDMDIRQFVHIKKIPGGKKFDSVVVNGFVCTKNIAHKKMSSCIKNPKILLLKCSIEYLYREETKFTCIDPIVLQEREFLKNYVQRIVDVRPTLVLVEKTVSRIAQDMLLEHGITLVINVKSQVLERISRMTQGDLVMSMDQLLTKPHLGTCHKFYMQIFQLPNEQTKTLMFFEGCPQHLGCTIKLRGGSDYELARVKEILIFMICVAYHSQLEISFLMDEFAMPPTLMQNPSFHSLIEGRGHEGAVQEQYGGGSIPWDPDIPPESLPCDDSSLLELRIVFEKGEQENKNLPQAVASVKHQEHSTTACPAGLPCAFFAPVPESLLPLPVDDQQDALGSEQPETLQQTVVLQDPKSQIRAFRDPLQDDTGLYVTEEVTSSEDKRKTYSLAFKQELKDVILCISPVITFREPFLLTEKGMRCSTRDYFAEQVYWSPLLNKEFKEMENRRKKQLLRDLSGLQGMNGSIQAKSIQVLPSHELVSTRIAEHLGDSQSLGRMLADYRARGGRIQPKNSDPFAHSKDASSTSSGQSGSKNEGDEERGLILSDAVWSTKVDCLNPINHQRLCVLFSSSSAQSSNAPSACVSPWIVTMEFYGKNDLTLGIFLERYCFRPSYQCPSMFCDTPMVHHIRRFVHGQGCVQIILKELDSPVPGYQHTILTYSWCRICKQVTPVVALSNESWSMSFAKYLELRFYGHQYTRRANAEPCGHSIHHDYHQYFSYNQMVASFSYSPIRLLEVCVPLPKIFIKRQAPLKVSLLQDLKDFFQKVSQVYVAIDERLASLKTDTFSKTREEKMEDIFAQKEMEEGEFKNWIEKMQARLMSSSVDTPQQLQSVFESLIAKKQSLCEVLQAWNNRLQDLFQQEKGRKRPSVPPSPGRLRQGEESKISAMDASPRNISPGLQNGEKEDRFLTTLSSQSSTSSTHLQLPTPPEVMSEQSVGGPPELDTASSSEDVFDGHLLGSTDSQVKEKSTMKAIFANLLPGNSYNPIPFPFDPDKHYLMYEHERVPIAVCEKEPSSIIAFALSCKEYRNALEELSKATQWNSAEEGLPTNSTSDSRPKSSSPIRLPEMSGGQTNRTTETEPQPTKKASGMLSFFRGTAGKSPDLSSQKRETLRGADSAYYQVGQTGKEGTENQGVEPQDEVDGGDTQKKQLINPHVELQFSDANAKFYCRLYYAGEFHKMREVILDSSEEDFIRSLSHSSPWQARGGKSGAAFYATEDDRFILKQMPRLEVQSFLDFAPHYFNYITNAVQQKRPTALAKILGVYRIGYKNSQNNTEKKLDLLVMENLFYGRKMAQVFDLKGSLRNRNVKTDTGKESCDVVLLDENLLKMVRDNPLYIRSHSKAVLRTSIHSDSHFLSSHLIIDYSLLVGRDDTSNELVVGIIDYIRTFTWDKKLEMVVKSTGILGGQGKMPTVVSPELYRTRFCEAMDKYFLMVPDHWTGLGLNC

The experiment addresses PIKfyve (Homo sapiens (Human), UniProt Q9Y2I7). In words: Kinase binding assay (kinase-tagged T7 phage, affinity beads, qPCR readout), Kd determination. Conditions: 11-point 3-fold compound dilution series. As for the experimental part: Kinase assays. For most assays, kinase-tagged T7 phage strains were prepared in an E. coli host derived from the BL21 strain. E. coli were grown to log-phase and infected with T7 phage and incubated with shaking at 32° C. until lysis. The lysates were centrifuged and filtered to remove cell debris. The remaining kinases were produced in HEK-293 cells and subsequently tagged with DNA for qPCR detection. Streptavidin-coated magnetic beads were treated with biotinylated small molecule ligands for 30 minutes at room temperature to generate affinity resins for kinase assays. The liganded beads were blocked with excess biotin and washed with blocking buffer (SeaBlock (Pierce), 1% BSA, 0.05% Tween 20, 1 mM DTT) to remove unbound ligand and to reduce non-specific binding. Binding reactions were assembled by combining kinases, liganded affinity beads, and test compounds in 1× binding buffer (20% SeaBlock, 0.17×PBS, 0.05% Tween 20, 6 mM DTT). Test compounds were prepared as 111× stocks in 100% DMSO. Kds were determined using an 11-point 3-fold compound dilution series with three DMSO control points. All compounds for Kd measurements are distributed by acoustic transfer (non-contact dispensing) in 100% DMSO. The compounds were then diluted directly into the assays such that the final concentration of DMSO was 0.9%. All reactions performed in polypropylene 384-well plate. Each was a final volume of 0.02 ml. The assay plates were incubated at room temperature with shaking for 1 hour and the affinity beads were washed with wash buffer (1×PBS, 0.05% Tween 20). The beads were then re-suspended in elution buffer (1×PBS, 0.05% Tween 20, 0.5 μM non-biotinylated affinity ligand) and incubated at room temperature with shaking for 30 minutes. The kinase concentration in the eluates was measured by qPCR.
An 11-point 3-fold serial dilution of each test compound was prepared in 100% DMSO at 100× final test concentration and subsequently diluted to 1× in the assay (final DMSO concentration=1%). Most Kds were determined using a compound top concentration=30,000 nM. If the initial Kd determined was <0.5 nM (the lowest concentration tested), the measurement was repeated with a serial dilution starting at a lower top concentration.
A general note: In qPCR the cycle at which signal appears reflects the starting amount.
As usually defined, the Kd is the constant that tells how readily two partners part at equilibrium. A lower Kd goes with higher affinity. For `Clc1cccc(/C=N/Nc2nc(N3CCOCC3)c3cc(-c4cnco4)sc3n2)c1` [Example 14, N-[(E)-(3-chlorophenyl)methyleneamino]-4-morpholino-6-oxazol-5-yl-thieno[2,3-d]pyrimidin-2-amine], the dissociation constant (Kd) is 10 to 60 nM.
The same measure for `Cc1cccc(/C=N/Nc2nc(N3CCOCC3)c3cc(-c4ccncc4)sc3n2)c1` [Example 11, 4-morpholino-N-[(E)-m-tolylmethyleneamino]-6-(4-pyridyl)thieno[2,3-d]pyrimidin-2-amine]: 1 to 10 nM; for `Cc1cccc(/C=N/Nc2nc(N3CCOCC3)c3sc(-c4cccnc4)cc3n2)c1` [Example 261, 4-morpholino-N-[(E)-m-tolylmethyleneamino]-6-(3-pyridyl)thieno[3,2-d]pyrimidin-2-amine]: not above 1 nM; for `Cc1cccc(/C=N/Nc2nc(N3CCOCC3)c3cc(-c4c(C)noc4C)sc3n2)c1` [Example 267, 6-(3,5-dimethylisoxazol-4-yl)-4-morpholino-N-[(E)-m-tolylmethyleneamino]thieno[2,3-d]pyrimidin-2-amine]: 1 to 10 nM.
The same measure for `Cc1cccc(/C=N/Nc2nc(N3CCOCC3)c3sc(-c4ccccc4)cc3n2)c1` [Example 1, 4-morpholino-N-[(E)-m-tolylmethyleneamino]-6-phenyl-thieno[3,2-d]pyrimidin-2-amine]: 1 to 10 nM; for `Cc1cccc(/C=N/Nc2nc(N3CCOCC3)c3sc(-c4cnn(C)c4)cc3n2)c1` [Example 262, 6-(1-methylpyrazol-4-yl)-4-morpholino-N-[(E)-m-tolylmethyleneamino]thieno[3,2-d]pyrimidin-2-amine]: not above 1 nM.
The value for `Cc1cccc(/C=N/Nc2nc(N3CCOCC3)c3sc(-c4ccncc4)cc3n2)c1` [Example 2, 4-morpholino-N-[(E)-m-tolylmethyleneamino]-6-(4-pyridyl)thieno[3,2-d]pyrimidin-2-amine] was not above 1 nM; that for `Cc1cccc(/C=N/Nc2nc(N3CCOCC3)c3sccc3n2)c1` [Example 3, 4-morpholino-N-[(E)-m-tolylmethyleneamino]thieno[3,2-d]pyrimidin-2-amine] was 1 to 10 nM; that for `Cc1cccc(/C=N/Nc2nc(N3CCOCC3)c3cc(-c4cnco4)sc3n2)c1` [Example 12, 4-morpholino-N-[(E)-m-tolylmethyleneamino]-6-oxazol-5-yl-thieno[2,3-d]pyrimidin-2-amine] was not above 1 nM.
With `Cc1cccc(/C=N/Nc2nc(N3CCOCC3)c3cc(-c4c(C)n[nH]c4C)sc3n2)c1` [Example 268, 6-(3,5-dimethyl-1H-pyrazol-4-yl)-4-morpholino-N-[(E)-m-tolylmethyleneamino]thieno[2,3-d]pyrimidin-2-amine], the Kd was in the range of 1 to 10 nM.
On to `Cc1cccc(/C=N/Nc2nc(N3CCOCC3)c3sc(-c4c(C)n[nH]c4C)cc3n2)c1` [Example 263, 6-(3,5-dimethyl-1H-pyrazol-4-yl)-4-morpholino-N-[(E)-m-tolylmethyleneamino]thieno[3,2-d]pyrimidin-2-amine], for which the dissociation constant Kd was not above 1 nM.
Compound `Cc1cccc(/C=N/Nc2nc(N3CCOCC3)c3ccsc3n2)c1` [Example 10, 4-morpholino-N-[(E)-m-tolylmethyleneamino]thieno[2,3-d]pyrimidin-2-amine] yielded a Kd of 10 to 60 nM.
The value for `Cc1cccc(/C=N/Nc2nc(N3CCOCC3)c3sc(-c4c(C)noc4C)cc3n2)c1` [Example 264, 6-(3,5-dimethylisoxazol-4-yl)-4-morpholino-N-[(E)-m-tolylmethyleneamino]thieno[3,2-d]pyrimidin-2-amine] was not above 1 nM; that for `Cc1cccc(/C=N/Nc2nc(N3CCOCC3)c3sc(C(=O)NC4COC4)cc3n2)c1` [Example 7, 4-morpholino-2-[(2E)-2-(m-tolylmethylene)hydrazino]-N-(oxetan-3-yl)thieno[3,2-d]pyrimidine-6-carboxamide] was not above 1 nM; that for `Cc1cccc(/C=N/Nc2nc(N3CCOCC3)c3sc(-c4cnco4)cc3n2)c1` [Example 9, 4-Morpholino-N-[(E)-m-tolylmethyleneamino]-6-oxazol-5-yl-thieno[3,2-d]pyrimidin-2-amine] was 1 to 10 nM.
The same measure for `Cc1cccc(/C=N/Nc2nc(N3CCOCC3)c3sc(C(=O)NC4CNC4)cc3n2)c1` [Example 22, N-(azetidin-3-yl)-4-morpholino-2-[(2E)-2-(m-tolylmethylene)hydrazino]thieno[3,2-d]pyrimidine-6-carboxamide]: 1 to 10 nM.
The value for `Cc1cccc(/C=N/Nc2nc(N3CCOCC3)c3sc(C(=O)Nc4cccnc4)cc3n2)c1` [Example 4, 4-morpholino-2-[(2E)-2-(m-tolylmethylene)hydrazino]-N-(3-pyridyl)thieno[3,2-d]pyrimidine-6-carboxamide] was not above 1 nM.
Compound `Cc1cccc(CCNc2nc(N3CCOCC3)c3sc(-c4ccncc4)cc3n2)c1` [Example 255, 4-morpholino-N-[2-(m-tolyl)ethyl]-6-(4-pyridyl)thieno[3,2-d]pyrimidin-2-amine] gave a Kd of 10 to 60 nM.
For `Cc1cccc(/C=N/Nc2nc(N3CCOCC3)c3sc(C(=O)Nc4ccncc4)cc3n2)c1` [Example 5, 4-morpholino-2-[(2E)-2-(m-tolylmethylene)hydrazino]-N-(4-pyridyl)thieno[3,2-d]pyrimidine-6-carboxamide], the dissociation constant (Kd) lay in the range of 1 to 10 nM.
